According to ChEMBL document CHEMBL1833931, “Simple synthetic toll-like receptor 2 ligands” (Bioorg Med Chem Lett, 2011):
Calls of active or inactive are those of the source. No cut-off for these calls is given here.

Biological target: Toll-like receptor 2 (Homo sapiens) (UniProt O60603)
Test: Agonist activity at TLR2 expressed in HEK293 cells co-expressing pNF-kappaB-Luc Cis assessed as NF-kappaB activation at 100 nM by luciferase reporter gene assay
Assay type: functional, cell-based

Toll-like receptor 2 (Homo sapiens), sequence (O60603 whole entry): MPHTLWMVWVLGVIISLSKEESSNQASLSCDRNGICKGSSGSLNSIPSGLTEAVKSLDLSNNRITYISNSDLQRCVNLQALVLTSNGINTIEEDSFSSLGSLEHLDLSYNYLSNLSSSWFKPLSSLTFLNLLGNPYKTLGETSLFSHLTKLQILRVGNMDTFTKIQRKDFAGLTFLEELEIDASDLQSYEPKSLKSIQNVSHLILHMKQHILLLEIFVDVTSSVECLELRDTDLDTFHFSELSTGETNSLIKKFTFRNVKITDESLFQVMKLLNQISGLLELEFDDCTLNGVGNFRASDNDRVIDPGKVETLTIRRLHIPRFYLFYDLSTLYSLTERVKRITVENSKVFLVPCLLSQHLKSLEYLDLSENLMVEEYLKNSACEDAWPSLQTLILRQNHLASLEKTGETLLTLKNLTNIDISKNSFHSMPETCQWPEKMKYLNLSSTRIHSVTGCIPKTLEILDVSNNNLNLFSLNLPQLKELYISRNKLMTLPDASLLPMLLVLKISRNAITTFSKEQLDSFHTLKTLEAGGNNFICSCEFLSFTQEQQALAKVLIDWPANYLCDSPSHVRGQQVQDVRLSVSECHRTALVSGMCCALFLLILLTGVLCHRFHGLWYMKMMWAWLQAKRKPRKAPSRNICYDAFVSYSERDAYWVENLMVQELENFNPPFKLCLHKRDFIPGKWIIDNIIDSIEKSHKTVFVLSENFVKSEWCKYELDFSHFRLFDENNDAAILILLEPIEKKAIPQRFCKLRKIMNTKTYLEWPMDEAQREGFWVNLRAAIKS

Row | Activity | Structure (SMILES)
1 | Active | CCCCCCCCCCCCCCCC(=O)NC(CCCCCCCCCCCCCC)C(=O)O (configuration not stated)
2 | Active | CCCCCCCCCCCCCCCC(=O)NC(CO)CCCCCCCCCCCCCC (configuration not stated)
